Data from article PMC6895180 (Nature Communications, 2019).
Where “and” joins values, the source holds several entries; their conditions need not be identical. Equal values may be shown once. Read-outs that look alike come from different tables or passages of the source. Marks after values point to notes of the source that are not given here.

Assays:
T. brucei Squib 427 = experiment: microbe, parasite or virus in culture; assay type: cell-based, Trypanosoma brucei brucei; conditions: for SI (MRC/T.b. brucei): selectivity index
[1] = system: T. b. rhodesiense STIB-900; experiment: microbe, parasite or virus in culture; assay type: cell-based, Trypanosoma brucei rhodesiense; conditions: for SI (MRC/T.b. rhodesiense): selectivity index
[2] = system: T. b. brucei Lister 427WT; experiment: Drug susceptibility test (resazurin), Lister 427WT; assay type: cell-based, Trypanosoma brucei brucei
Outline: (§1)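 Trypanosomes (2 × 10^4 cells/well) exposed 48 h at 37 °C/5% CO2 in HMI-9/FBS to 23-step doubling dilutions from 100 µM, then resazurin added for a further 24 h. Fluorescence fitted to a variable-slope sigmoid curve.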

[3] = system: ISMR1: isometamidium-resistant T. brucei cell line; experiment: microbe, parasite or virus in culture; assay type: cell-based, Trypanosoma brucei brucei; conditions: for RF (ISMR1): resistance factor vs Lister 427WT
Outline: as §1

[4] = system: TbAT1-KO: T. brucei cell line lacking the TbAT1(P2) transporter gene; experiment: microbe, parasite or virus in culture; assay type: cell-based, Trypanosoma brucei brucei; conditions: for RF (TbAT1-KO): resistance factor: ratio of EC50 of resistant and Lister 427WT
Outline: as §1

P1 transporter = assay type: cell-based, Trypanosoma brucei
Protocol: (§2) Non-specific association of radiolabel with the cell pellet was determined using an identical incubation in the presence of saturating (1 mM) unlabelled adenosine.

P2 transporter (TbAT1) = P2 transporter (TbAT1) (Trypanosoma brucei brucei, UniProt Q9Y0I0); experiment: cell-based; conditions: for P2 transporter ΔG^0: Gibbs free energy from −RT ln(Ki); for IC50: P2 transporter IC50, single experiments, [L] 0.033 or 0.1 per experiment; for Ki: P2 transporter Ki; for P2 transporter δ(ΔG^0): in comparison to adenosine
Protocol: as §2

[5] = system: T. brucei s427 wildtype cells; experiment: Microscopy of trypanosome cell morphology (DAPI); assay type: cell-based, Trypanosoma brucei; conditions: 2× and 5× EC50; 6 h and especially 12 h
Protocol: Growth assays of T. brucei
To test the effect of the novel adenosine analogues on the growth of T. brucei BSF, s427 wildtype cells were seeded at 1×10^5 cells mL-1 in 5 mL of HMI-9 medium with 10% FBS and treated with compounds […]
cells were also incubated in drug-free medium under the same conditions. 2 μM of 2’-deoxycoformycin were added to all cultures to avoid any potential effect of serum adenosine deaminase on the activity of test compounds and cordycepin.1
Cells were manually counted in Neubauer chambers at 0, 2, 4, 6, 8, 12, 24, 36 and 48 h after addition of the drugs. At 6 and 12 h, cells were also collected and fixed to have their structure checked by […]
Wash-out experiments with T. brucei
A culture of bloodstream form T. brucei 427WT, at mid-log phase of growth, was harvested and resuspended at a density of 10^5 cells mL-1, in fresh medium containing either no test compound, or […]
The cultures were incubated under standard conditions (37 °C/5% CO2) and cell counts were performed manually using a haemocytometer under phase contrast microscopy, every 24 h. The culture in continuous presence of analogue 9 was split in two at 8 h and 48 h (as indicated with arrows in Supplementary Figure S2). The split cultures were centrifuged and resuspended in the same volume of either fresh medium without test compound or fresh medium with the same concentration of compound 9 as before, reincubated. The detection limit for the manual cell count was 10^4 cells mL-1.
After 6 and 12 h after addition of drugs, approximately 2×10^6 cells were harvested from each group and applied to glass slides pre-treated with poly-L-lysine, left to settle for 5 min and fixed with 4% formaldehyde for 4 min. The formaldehyde was neutralised by addition of 100 mM glycine (20 min).
Cells were washed once with PBS and blocked for 1 h with 1% BSA/0.2% Tween-20 in PBS. Cells were […]
A coverslip was then placed on top of the wells and sealed with nail varnish.
Metabolic stability of nucleoside analogue 9 […]
and B (Corning) were kept at -20°C. The test compound and the reference compounds diclofenac (MW […]

[6] = Trypanosoma brucei, Alamar blue cell viability assay, mean and SEM, read-out: T. b. brucei EC50
[7] = Trypanosoma brucei, source data, read-out: T. brucei brucei EC50, Average
[8] = Trypanosoma brucei, RHODESIENSE, Alamar blue cell viability assay, mean and SEM, read-out: T. b. rhodesiense EC50
[9] = Trypanosoma brucei, RHODESIENSE, source data, read-out: T. brucei rhodesiense EC50, Average
[10] = source data, read-out: T. brucei rhodesiense EC50, single measurements
[11] = Trypanosoma brucei, mean and SEM, n = 3, read-out: Lister 427 EC50
[12] = Trypanosoma brucei, source data, read-out: s427 EC50, AVG
[13] = Trypanosoma brucei, mean and SEM, n = 3, read-out: ISMR1 EC50
[14] = Trypanosoma brucei, source data, read-out: ISMR1 EC50, AVG
[15] = Trypanosoma brucei, read-out: TbAT1-KO EC50, AVG, source data
[16] = Trypanosoma brucei, read-out: TbAT1-KO EC50, mean and SEM, n = 3
[17] = read-out: TbAT1-KO EC50, single determinations, source data
[18] = inhibition of [3H]adenosine uptake, mean ± SEM, n = 3, read-out: P1 transporter Ki
[19] = source data, read-out: P1 transporter Ki, AVG
[20] = inhibition of [3H]adenosine uptake, mean ± SEM, n = 3
[21] = single experiments, Cheng–Prusoff from IC50
[22] = Trypanosoma brucei, RHODESIENSE, source data, read-out: T. brucei rhodesiense EC50, single measurements
[23] = Trypanosoma brucei, source data, read-out: s427 EC50, single determinations
[24] = source data, read-out: s427 EC50, single determinations
[25] = Trypanosoma brucei, source data, read-out: ISMR1 EC50, single determinations
[26] = source data, read-out: ISMR1 EC50, single determinations
[27] = Trypanosoma brucei, read-out: TbAT1-KO EC50, single determinations, source data

Chain of P2 transporter (TbAT1) (Q9Y0I0 entry or part of it): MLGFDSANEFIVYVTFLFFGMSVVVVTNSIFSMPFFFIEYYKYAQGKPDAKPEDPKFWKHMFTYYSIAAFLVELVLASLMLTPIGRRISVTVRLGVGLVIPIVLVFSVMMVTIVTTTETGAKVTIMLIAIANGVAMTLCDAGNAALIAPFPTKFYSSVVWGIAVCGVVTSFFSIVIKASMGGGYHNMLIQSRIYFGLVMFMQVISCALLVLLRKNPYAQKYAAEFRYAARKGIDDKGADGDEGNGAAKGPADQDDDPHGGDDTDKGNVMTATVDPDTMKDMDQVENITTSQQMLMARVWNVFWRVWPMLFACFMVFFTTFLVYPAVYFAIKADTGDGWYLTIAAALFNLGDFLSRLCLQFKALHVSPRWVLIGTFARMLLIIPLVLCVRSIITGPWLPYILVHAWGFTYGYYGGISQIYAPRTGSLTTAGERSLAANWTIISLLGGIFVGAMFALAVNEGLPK

SMILES | EC50 (T. brucei Squib 427; [6]) [nM] | EC50 (T. brucei Squib 427; [7]) [nM] | SI (MRC/T.b. brucei) (T. brucei Squib 427) | EC50 [1, 8] [nM] | EC50 [1, 9] [nM] | SI (MRC/T.b. rhodesiense) [1] | EC50 [1, 10] [nM] | EC50 [2, 11] [nM] | EC50 [2, 12] [nM] | EC50 [3, 13] [nM] | RF (ISMR1) [3] | EC50 [4, 16] [nM] | EC50 [4, 17] | Ki (P1 transporter; [19]) [nM] | P2 transporter ΔG^0 (P2 transporter (TbAT1)) [kcal/mol] | IC50 (P2 transporter (TbAT1)) | Ki (P2 transporter (TbAT1); AVG, source data) [nM] | Ki (P2 transporter (TbAT1); [21]) | P2 transporter δ(ΔG^0) (P2 transporter (TbAT1)) [kcal/mol] | cell morphology [5] | further results
Nc1ncnc2c1c(Br)cn2[C@@H]1O[C@H](CO)C[C@H]1O [Compound 10, 3’-deoxy-7-Br-tubercidin] | 1.3 ± 0.3 | 1.29 | 11,462 | 0.4 ± 0.09 | 0.398 | 37,500 | 0.5 | 1.8 ± 0.3 | 1.76 | 1.1 ± 0.2 | 0.63 | 2.1 ± 0.25 | 1.94 nM | 10100 | -8.58 | 620 nM and 790 nM and 250 nM | 500 | 520 nM and 740 nM and 240 nM | -0.024 | clear aberrant morphology | EC50 [3, 14]: 1.11 nM; EC50 [4, 15]: 2.12 nM; RF (TbAT1-KO) [4]: 1.2; fold improvement of affinity for P1 (P1 transporter; 10 versus 9 (bromine at 7-position)): 10 fold; Ki (P1 transporter; Cheng–Prusoff from IC50, read-out: P1 transporter Ki, single experiments): 13400 nM and 8500 nM and 8400 nM; Ki (P1 transporter; [18]): 9470 ± 1400 nM; Ki (P2 transporter (TbAT1); [20]): 502 ± 140 nM
Nc1ncnc2c1c(Br)cn2[C@@H]1O[C@H](CO)[C@@H](O)[C@H]1O [Compound 8, 7-bromotubercidin] | 1200 ± 300 |  | 10 | 120 ± 20 | 120 | 107 | 136 |  | 315 | 1530 ± 157 | 4.85** | 825 ± 17.3 | 858 nM and 798 nM | 7100 | -7.77 | 2520 nM and 3860 nM and 4390 nM | 3020 | 2110 nM and 3240 nM and 3690 nM | 0.789 | clear aberrant morphology | EC50 [1, 22]: 106 nM; EC50 ([2]; Trypanosoma brucei, read-out: Lister 427 EC50, mean and SEM, n = 3): 320 ± 270 nM; EC50 [2, 23]: 364 nM; EC50 [2, 24]: 309 nM and 273 nM; EC50 [3, 14]: 1530 nM; EC50 [3, 25]: 1390 nM; EC50 [3, 26]: 1100 nM and 2070 nM and 1520 nM; EC50 [4, 27]: 820 nM; RF (TbAT1-KO) [4]: 2.62***
Nc1ncnc2c1ccn2[C@@H]1O[C@H](CO)C[C@H]1O [Compound 9, 3’-deoxytubercidin] | 48 ± 9 | 47.7 | >1333 | 0.52 ± 0.04 | 0.521 | >123,077 | 0.557 | 33 ± 1 | 33.3 | 32.4 ± 3.8 | 0.97 | 375 ± 12 | 397 nM and 357 nM | 108000 | -9.3 | 133 nM and 281 nM and 171 nM and 85 nM | 147 | 111 nM and 236 nM and 160 nM and 80 nM | -0.741 | clear aberrant morphology | EC50 (T. brucei Squib 427; Trypanosoma brucei, source data, read-out: T. brucei brucei EC50, single measurements): 39.9 nM; EC50 (T. brucei Squib 427; source data, read-out: T. brucei brucei EC50, single measurements): 65.2 nM and 38 nM; EC50 [1, 22]: 0.484 nM; EC50 [2, 23]: 32 nM; EC50 [2, 24]: 35.5 nM and 32.4 nM; EC50 [3, 25]: 39.2 nM; EC50 [3, 26]: 32 nM and 26 nM; EC50 [4, 15]: 374 nM; EC50 [4, 27]: 370 nM; Ki (P1 transporter; [18]): 99900 ± 21700 nM; P2 Ki, fold lower than the Km value for adenosine (P2 transporter (TbAT1)): roughly 3 fold; energy advantage at P2 versus adenosine (P2 transporter (TbAT1)): roughly 3 kJ mol^−1; Ki (P2 transporter (TbAT1); [20]): 149 ± 30 nM
